# Columns and labels:
# [1] = Repeated-dose study in SHPT, stage 3 or 4 CKD, vitamin D insufficiency: serum total 25-hydroxyvitamin D; assay type: in vivo, human; settings: target of 30 ng/mL; end of second month of treatment (EAP2)
# Description: (§1) A study is carried out with repeated-dosing of ERC (Rayaldee® (calcifediol) extended-release capsules), IR calcifediol (“IRC”), high-dose cholecalciferol (“HDC”), and paricalcitol plus low-dose cholecalciferol (“PLDC”) in adult patients with secondary hyperparathyroidism (SHPT), stage 3 or 4 chronic kidney disease (CKD) and vitamin D insufficiency.
# (§2) This is an open-label study to gather comparative data evaluating the ERC, IR calcifediol, high-dose cholecalciferol, and paricalcitol plus low-dose cholecalciferol. Eligible subjects were randomized 1:1:1:1 to receive 8 weeks of treatment with one of the listed study medications with a sufficient quantity of a non-alcoholic beverage to enable swallowing of the capsules: • 1) ERC capsules 60 μg once daily at bedtime, except on Days 1 and 29 when dosing occurred in the morning before breakfast in the phase 1 unit; • 2) IR calcifediol 266 μg before breakfast on the mornings of Day 1 and Day 29 in the phase 1 unit; • 3) cholecalciferol 300,000 IU (high-dose) before breakfast on the mornings of Day 1 and Day 29 in the phase 1 unit; and • 4) paricalcitol 1 μg (possibly increasing to 2 μg per day at Day 29) plus cholecalciferol 800 IU (low-dose) once daily in the morning before breakfast, except on the mornings of Days 1 and 29 when dosing occurred before breakfast in the phase 1 unit. […]
# Plasma iPTH = experiment: Repeated-dose study (Example 3): plasma iPTH-lowering response; assay type: in vivo, human; settings: EAP2
# Description: as §1, §2
# [2] = Stability of calcifediol in acidic dissolution media (Example 4); assay type: physicochemical; settings: pH 1.2 medium, 37° C., after 6 hours
# Description: The stability of calcifediol was tested in acidic dissolution media at ambient/light conditions and also in dark conditions, at 37° C., 20° C., and 10° C., using 30 μg calcifediol extended release capsules.
SMILES,serum total 25-hydroxyvitamin D response rate [1] [%],plasma iPTH response rate (Plasma iPTH; response = ≥20% reduction from pre-treatment baseline) [%],plasma iPTH response rate (Plasma iPTH; response = ≥30% reduction from pre-treatment baseline) [%],degradation [2]
"C=C1CC[C@H](O)C/C1=C/C=C1\CCC[C@]2(C)[C@@H]([C@H](C)CCCC(C)C)CC[C@@H]12 [HDC, cholecalciferol]",44,37.5,25.0,–
C=C1CC[C@H](O)C/C1=C/C=C1\CCC[C@]2(C)[C@@H]([C@H](C)CCCC(C)(C)O)CC[C@@H]12 [calcifediol],–,–,–,about 90%

# From patent US20230330110A1, “HARD CAPSULE DOSAGE FORM AND USES THEREOF” (EIRGEN PHARMA LTD., priority 2020, published 2023)
